Several values for one entry are separate records, joined by “and”; a condition that tells them apart may be missing. Identical values can stand only once.
Key:
[1] = system: 1b PI-luc replicon with NS3 protease mutation R155K; format: cell-based, HCV genotype 1b; conditions: ratio of mutant EC50 to wild type EC50, NS3 R155K
[2] = system: 1b PI-luc replicon with NS3 protease mutation A156T; format: cell-based, HCV genotype 1b; conditions: ratio of mutant EC50 to wild type EC50, NS3 A156T
[3] = system: HCV 1b-con replicon cells; assay: Long-term (20 days, 6 passages) treatment of HCV replicon cells, HCV RNA by Real-Time RT PCR; format: cell-based, HCV genotype 1b; conditions: from baseline, compounds at 10 times their EC50, mean ± SD
Method: (§1) HCV genotype 1b replicon cells (Huh-luc) were obtained from Reblikon (Mainz, Germany). The replicon in these cells is designated I389luc-ubi-neo/NS3-3′/ET and encodes a selectable resistance marker (neomycin phosphotransferase) as well as the firefly luciferase reporter gene. Huh-luc cells were maintained in Dulbecco's Modified Eagle's Medium (DMEM; GIBCO, Carlsbad, Calif.) supplemented with 10% fetal bovine serum (FBS; Hyclone, Logan, Utah) and 0.5 mg/mL of G-418 (GIBCO). Cells were passaged twice a week and maintained at subconfluent levels.
Both compounds were used at concentrations 10 times over their respective EC50 values. In brief, replicon cells (10^6 cells) were plated in a T75 flask in 15 mL of supplemented DMEM without G418. […] At each passage, cells were trypsinized, 10^6 cells were frozen in […] of RLT RNA lysis buffer (QIAGEN), and an additional 10^6 cells were seeded into another T75 flask with fresh medium and inhibitors. At the end of the assay, RNA was extracted from frozen replicon cells saved at the time of passage using QIAGEN RNeasy spin kit and was analyzed in a Real-Time RT PCR assay (Applied Biosystems).

[4] = system: HCV genotype 1b replicon cells (Huh-luc); assay: Combination study in Huh-luc replicon cells analysed with MacSynergy II; format: cell-based; conditions: Compound 1 in combination with Compound 2, MacSynergy II
Method: as §1
For each individual drug, the EC50 value was selected as the midpoint for the concentration range tested. Cells were incubated for three days and analyzed for luciferase expression as indicated above. For the combination study, two independent experiments were performed in triplicate.
The calculated volumes of surface deviations are expressed in nM2%. Per Prichard and Shipman, combination effects are defined as:
Highly synergistic if volumes >100 nM^2.
Slightly synergistic if volumes are >50 and ≦100 nM^2.
Additive if volumes are >−50 nM^2 and ≦50 nM^2.
Slightly antagonistic if volumes are >−100 nM^2 and ≦−50 nM^2.
Antagonistic if volumes are ≦−100 nM^2.

[5] = system: HCV genotype 1b replicon cells (Huh-luc); assay: EC50 determination in HCV genotype 1b Huh-luc replicon cells (luciferase); format: cell-based; conditions: Hepatitis C virus, 72 h, 3 days, average ± standard deviation
Method: as §1
Replicon cells were seeded in 96-well plates at a density of 5×10^3 cells per well in 100 μL of DMEM culture medium, excluding G-418. Compounds 1 and 2 were serially diluted 1:3 in 100% DMSO (Sigma). These serial dilutions were added to the cells at a 1:200 dilution to achieve a final concentration of 0.5% DMSO in a total volume of 200 μL. […] HCV replication levels in drug-treated samples were expressed as a percentage of those in untreated controls (defined as 100%), and data were fit to the logistic dose response equation y=a/(1+(x/b)c) using XLFit4 software (IDBS, Emeryville, Calif.). EC50 values were calculated from the resulting equations as described previously (Delaney, W. E., et al., Antimicrobial Agents Chemotherapy, 45(6):1705-1713 (2001)).

[6] = system: 1b PI-luc replicon with NS3 protease mutation D168V; format: cell-based, HCV genotype 1b; conditions: ratio of mutant EC50 to wild type EC50, NS3 D168V
[7] = system: 1b PI-luc replicon with NS3 protease mutation V36M; format: cell-based, HCV genotype 1b; conditions: ratio of mutant EC50 to wild type EC50, NS3 V36M
[8] = system: 1b PI-luc replicon with NS3 protease mutation T54A; format: cell-based, HCV genotype 1b; conditions: ratio of mutant EC50 to wild type EC50, NS3 T54A
[9] = system: 1b Con-1 PI-Luc replicon with NS5B polymerase mutation Y448H; format: cell-based, HCV genotype 1b; conditions: ratio of mutant EC50 to wild type EC50, NS5B Y448H
[10] = Pharmacokinetic drug-drug interaction study, single dose with multiple-dose partner, healthy subjects (Example 6); format: in vivo, human; conditions: for Compound 1 AUC0-last, % Geometric Least-Squares Mean Ratio (90% CI) / Compound 1 AUCinf, % Geometric Least-Squares Mean Ratio (90% CI) / Compound 1 Cmax, % Geometric Least-Squares Mean Ratio (90% CI): Compound 1 + Compound 2 / Compound 1 alone; for AUC(0-t) / AUC(0-inf) / Cmax / half-life: human, plasma; for AUC(0-t): Compound 1 AUC0-last; for AUC(0-t) / AUC(0-inf) / Cmax: Mean (% CV); for AUC(0-inf): Compound 1 AUCinf; for Cmax: Compound 1 Cmax; for half-life: Compound 1 T1/2, Median (min, max)
Method: In this study, healthy subjects were randomized into one of the following three treatment groups: […] Treatment Group 3 (N=20): […] Serial blood samples for analysis of plasma concentrations of Compound 2 were collected up to 72 hours post-morning dose on Days 1 and 10 to determine systemic drug exposure.

[11] = system: 1b PI-luc replicon with NS3 protease mutation D168E; format: cell-based, HCV genotype 1b; conditions: ratio of mutant EC50 to wild type EC50, NS3 D168E
[12] = system: wild-type 1b Con-1 PI-Luc replicon; assay: Transient transfection replicon assay, wild type; format: cell-based, HCV genotype 1b; conditions: Hepatitis C virus
[13] = Multiple-dose pharmacokinetic interaction study in healthy subjects (Example 5); format: in vivo, human
[14] = Group 1, Compound 1 20 mg with Compound 2 150 mg BID vs Compound 1 20 mg alone
[15] = Group 2, Compound 1 40 mg with Compound 2 150 mg BID vs Compound 1 40 mg alone
[16] = 20 mg, Group 1, human, single-dose Compound 1 20 mg alone
[17] = 40 mg, Group 2, human, single-dose Compound 1 40 mg alone
[18] = Group 1, human, single-dose Compound 1 20 mg + multiple-dose Compound 2 150 mg BID
[19] = Group 2, human, single-dose Compound 1 40 mg + multiple-dose Compound 2 150 mg BID
[20] = Compound 1 (40 mg BID) + Compound 2 (75 mg BID) / Compound 1 alone
[21] = coadministration of Compound 2 (75 mg BID) with Compound 1 (40 mg BID) vs Compound 1 alone

Fc1ccccc1-c1nc2ccn(Cc3ccc(-c4ccc(C(F)(F)F)cc4C(F)(F)F)nn3)cc-2n1 [Compound 1, 5-({6-[2,4-bis(trifluoromethyl)phenyl]pyridazin-3-yl}methyl)-2-(2-fluorophenyl)-5H-imidazo[4,5-c]pyridine]
Fold Resistance R155K [1]: 0.9 fold
Fold Resistance A156T [2]: 0.6 fold
HCV RNA Change in Log10, Passage 5 [3]: −2.1 ± 0.5 Log10
HCV RNA Change in Log10, Passage 6 [3]: −2.3 Log10 and −2.4 ± 0.2 Log10
Interaction [4]: Additive (Additive if volumes are >−50 nM^2 and ≦50 nM^2.)
Antagonism Volume ([4]; mean ± SD): 0.07 ± 0.07 nM^2
Synergy Volume ([4]; mean ± SD): 13.5 ± 10.5 nM^2
EC50 [5]: 3 ± 2 nM
Fold Resistance D168V [6]: 1.2 fold
Fold Resistance V36M [7]: 1.1 fold
Fold Resistance T54A [8]: 1.0 fold
Fold Resistance Y448H [9]: 38.0 fold
Compound 1 AUC0-last, % Geometric Least-Squares Mean Ratio (90% CI) ([10]; Group 1 (Compound 1 20 mg)): 250.5 (217.8, 288.0) %
Compound 1 AUCinf, % Geometric Least-Squares Mean Ratio (90% CI) ([10]; Group 1 (Compound 1 20 mg)): 321.1 (262.8, 392.2) %
Compound 1 Cmax, % Geometric Least-Squares Mean Ratio (90% CI) ([10]; Group 1 (Compound 1 20 mg)): 123.1 (111.6, 135.7) %
increase in AUC0-last of Compound 1 [10, 14]: 151%
increase in AUCinf of Compound 1 [10, 14]: 221%
increase in Cmax of Compound 1 [10, 14]: 23%
Compound 1 AUC0-last, % Geometric Least-Squares Mean Ratio (90% CI) ([10]; Group 2 (Compound 1 40 mg)): 253.0 (229.3, 279.1) %
Compound 1 AUCinf, % Geometric Least-Squares Mean Ratio (90% CI) ([10]; Group 2 (Compound 1 40 mg)): 350.4 (300.2, 409.1) %
Compound 1 Cmax, % Geometric Least-Squares Mean Ratio (90% CI) ([10]; Group 2 (Compound 1 40 mg)): 136.8 (122.7, 152.6) %
increase in AUC0-last of Compound 1 [10, 15]: 153%
increase in AUCinf of Compound 1 [10, 15]: 250%
increase in Cmax of Compound 1 [10, 15]: 37%
increase in median Compound 1 terminal phase elimination half-life ([10]; both groups (20 and 40 mg), with Compound 2 150 mg BID vs Compound 1 alone): approximately 2 fold
AUC(0-t) [10, 16]: 12.8 µg·h/mL
AUC(0-inf) [10, 16]: 13.4 µg·h/mL
Cmax [10, 16]: 0.94 µg/mL
half-life [10, 16]: 16.6 h
AUC(0-t) [10, 17]: 34.1 µg·h/mL
AUC(0-inf) [10, 17]: 35.5 µg·h/mL
Cmax [10, 17]: 1.98 µg/mL
half-life [10, 17]: 19.2 h
AUC(0-t) [10, 18]: 32.6 µg·h/mL
AUC(0-t) [10, 19]: 87.5 µg·h/mL
AUC(0-inf) [10, 18]: 49.5 µg·h/mL
AUC(0-inf) [10, 19]: 137 µg·h/mL
Cmax [10, 18]: 1.14 µg/mL
Cmax [10, 19]: 2.73 µg/mL
half-life [10, 18]: 35.8 h
half-life [10, 19]: 39.3 h
Fold Resistance D168E [11]: 1.0 fold
EC50 ([12]; Table 3 (NS5B mutation study)): 1.5 nM
EC50 ([12]; Table 4 (NS3 protease mutation study)): 0.79 nM
Compound 1 AUCtau, % Geometric Least Square Mean Ratio (90% CI) [13, 20]: 206.4 (185.1, 230.0) %
Compound 1 Cmax, % Geometric Least Square Mean Ratio (90% CI) [13, 20]: 185.2 (167.3, 205.0) %
Compound 1 Ctau, % Geometric Least Square Mean Ratio (90% CI) [13, 20]: 251.2 (219.5, 287.5) %
increase in AUCtau of Compound 1 [13, 21]: 106%
increase in Cmax of Compound 1 [13, 21]: 85%
increase in Ctau of Compound 1 [13, 21]: 151%
AUC ([13]; human, plasma, po, 40 mg): 43.4 µg·h/mL
Cmax ([13]; human, plasma, po, 40 mg): 5.04 µg/mL
concentration at 12 h ([13]; human, plasma, po, 40 mg): 2.57 µg/mL

Reference: patent US20100323989A1, “PHARMACEUTICAL COMBINATIONS USEFUL FOR TREATING HCV” (Gilead Sciences, Inc., priority 2009, published 2010)
